Reference: patent publication US20140323500A1, “NADPH OXIDASE 4 INHIBITORS AND USE THEREOF” (GENKYOTEX SA, priority 2011, published 2014)
pKi: −log10 of the molar value.

How the values were obtained:
[1] = molecular target: T1, human Nox4 (Homo sapiens, UniProt Q9NPH5); test: ROS production by membranes expressing human Nox4, cell-free Amplex Red assay; assay type: biochemical; conditions: cell-free membranes, Amplex Red; Cheng-Prusoff; average of at least three experiments in triplicate; read-out: Ki hNox4
T1 construct: expressed in transfected cells; host or cells: T-REx-293 (hNOX4 T-REx-293), tetracycline-induced; membrane fraction
T1 sequence (Q9NPH5 1-578): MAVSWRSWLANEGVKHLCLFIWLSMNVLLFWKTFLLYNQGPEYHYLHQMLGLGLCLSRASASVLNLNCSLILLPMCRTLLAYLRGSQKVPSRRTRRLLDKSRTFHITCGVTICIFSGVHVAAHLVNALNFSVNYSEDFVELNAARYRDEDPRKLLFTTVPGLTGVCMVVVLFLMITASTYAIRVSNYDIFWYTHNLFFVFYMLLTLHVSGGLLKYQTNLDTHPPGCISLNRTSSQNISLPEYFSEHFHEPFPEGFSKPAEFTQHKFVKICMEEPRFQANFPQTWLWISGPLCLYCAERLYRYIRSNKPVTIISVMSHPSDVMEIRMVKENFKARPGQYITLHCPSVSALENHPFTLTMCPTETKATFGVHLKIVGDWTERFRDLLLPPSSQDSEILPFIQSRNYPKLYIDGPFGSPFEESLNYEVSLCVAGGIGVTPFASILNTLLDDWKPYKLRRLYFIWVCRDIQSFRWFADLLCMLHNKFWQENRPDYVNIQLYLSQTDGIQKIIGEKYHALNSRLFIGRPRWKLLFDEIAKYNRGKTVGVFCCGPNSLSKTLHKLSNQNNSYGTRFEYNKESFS
T1 sequence (P13498 2-195 partner limits assumed): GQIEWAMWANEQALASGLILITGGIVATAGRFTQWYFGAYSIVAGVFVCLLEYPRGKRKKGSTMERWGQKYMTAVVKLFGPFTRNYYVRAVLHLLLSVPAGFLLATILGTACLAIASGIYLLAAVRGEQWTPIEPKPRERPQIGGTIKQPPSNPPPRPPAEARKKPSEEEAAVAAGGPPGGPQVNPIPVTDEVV
Excerpt: (§1) The Nox4 activity of Nox4 inhibitors according to the invention may be tested for their activity in the inhibition or reduction of formation of reactive oxygen species (ROS) from oxygen in cell free assays. In order to fully characterise Nox4 inhibitors, Nox subunit-specific cell-free, membrane-based systems have been developed and specific recombinant proteins have been added to membranes heterologously over-expressing their specific iso form. Nox enzymes produce superoxide (O2.−) as primary product, however due to the high instability and reactivity of this molecule which dismutates naturally into hydrogen peroxide (H2O2), therefore, read-out techniques involving probes that do measure H2O2 were used (e.g. using Amplex Red as a probe in order to facilitate consistent and accurate measurements). The activity of the compounds is tested in the following cell free assay using the techniques described here below:
Transfected T-REx™-CHO cells (R718-07) purchased from Invitrogen and T-REx™-293 cell line expressing hNOX4 (hNOX4 T-REx™-293) (Serrander et al., 2007, Biochem. J., 406, 105-114) were cultured in […]. Both media were supplemented with 10% FBS, 2 mM glutamine, penicillin (100 U/ml) and streptomycin (100 μg/ml). Selection pressure was maintained by continuous inclusion of blasticidin (5 μg/ml), and/or G418 (0.25 mg/ml), and/or Hygromycin (0.25 mg/ml) and/or zeocin (0.025 mg/ml).
(§2) Human Nox1, Nox2, Nox4, and Nox5 expression were induced with Tetracycline (1 μg/ml) during 24 h prior to the membrane preparation Membranes from transfected cells overexpressing Nox1, Nox2, Nox4 or Nox5 were prepared as previously described in Palicz et al., 2001, J. Biol. Chem., 76, 3090-3097. After resuspension in sonication buffer (11% sucrose, 120 mM NaCl, 1 mM EGTA in PBS, pH 7.4 for Nox4- or NOX5-expressing cells) or in relax buffer (10 mM Pipes, 3 mM NaCl, 3.5 mM MgCl2, 0.1M KCl, pH 7.4), cells were broken by sonication and centrifuged (200 g, 10 min). The supernatant was layered onto a 17/40% (w/v) discontinuous sucrose gradient and centrifuged (150,000×g for 60 min). Membrane fractions were collected from the 17/40% interface and were stored at −80° C. Protein concentration was determined with the Bradford reagent.
(§3) Reactive Oxygen Species (ROS) production by membranes expressing either human Nox1, or human Nox2 or human Nox4 or human Nox5 or by xanthine/xanthine oxidase were measured using the Amplex Red (AR) method following a slightly modified version of the manufacturer's instruction manual (Invitrogen). Briefly, membranes or xanthine were incubated in PBS with Amplex Red, Horse Radish Peroxidase (HRP) and appropriated co-factors. ROS production was induced by addition of NADPH to NOX-expressing membrane or by addition of xanthine to xanthine oxidase. Non-specific signal was measured in the absence of membranes or in the absence of xanthine.
Antagonist activity of compounds was measured in the presence of increasing concentrations ranging from 1 nM to 100 μM. After an incubation of 20 min in a plate shaker and incubator (Titramax 1000, VWR) at 37° C. with weak agitation (300 rpm), ROS levels were measured for 10 min in a BMG Fluostar microplate reader with excitation and emission wavelengths of 544 nm and 590 nm respectively.
Data were analysed using Prism (GraphPad Software Inc., San Diego, Calif.). Ki values were calculated using the Cheng-Prusoff equation and represent the average of at least three individual experiments performed in triplicate (Table 1). Nox4 inhibition was compared to that measured for Simvastatin (Enzo Life Sciences, CAS Number 79902-63-9) using the method described in Example 1. Reactive Oxygen Species (ROS) production by membranes expressing human Nox4 was measured using the Amplex Red (AR).

[2] = molecular target: T2, human Nox2 (Homo sapiens, UniProt P04839); test: ROS production by membranes expressing human Nox2, cell-free Amplex Red assay; assay type: biochemical; conditions: cell-free membranes, Amplex Red; Cheng-Prusoff; average of at least three experiments in triplicate; read-out: Ki hNox2
T2 construct: host or cells: T-REx-CHO (hNOX2 T-REx-CHO), tetracycline-induced; membrane fraction
T2 sequence (P04839 2-570 limits assumed): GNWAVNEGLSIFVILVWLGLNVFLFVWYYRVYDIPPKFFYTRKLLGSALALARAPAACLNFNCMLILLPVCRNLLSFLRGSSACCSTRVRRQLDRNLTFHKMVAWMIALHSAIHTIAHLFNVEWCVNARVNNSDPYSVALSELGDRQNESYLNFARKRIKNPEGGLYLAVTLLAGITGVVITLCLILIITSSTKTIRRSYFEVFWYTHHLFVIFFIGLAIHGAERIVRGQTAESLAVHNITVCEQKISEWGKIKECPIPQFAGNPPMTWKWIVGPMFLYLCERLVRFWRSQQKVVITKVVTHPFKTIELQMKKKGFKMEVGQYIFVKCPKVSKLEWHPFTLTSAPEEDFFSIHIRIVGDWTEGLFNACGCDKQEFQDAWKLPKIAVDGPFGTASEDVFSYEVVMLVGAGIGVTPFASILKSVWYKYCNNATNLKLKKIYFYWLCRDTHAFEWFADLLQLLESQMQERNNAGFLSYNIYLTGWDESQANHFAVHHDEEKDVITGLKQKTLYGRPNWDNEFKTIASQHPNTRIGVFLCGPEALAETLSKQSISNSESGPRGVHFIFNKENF
T2 sequence (P13498 2-195 partner limits assumed): T1 sequence (P13498 2-195 partner limits assumed)
Excerpt: as §1
Human Nox1 (NM_007052.4), human NOX2 (NM_000397), and human NOX5 (NM_0245052244) cDNAs were cloned into the pcDNA5/TO (Invitrogen). Human p22 (NM_000101.2) was cloned into pcDNA3.1/Zeo (+) (Invitrogen), and human NOXA1 (AY255769.1) and human NOXO1 (AB097667) were cloned into the bi-cistronic pVITRO1-neo-mcs plasmid (Invivogen).
Cells were transfected by using the FuGENE 6 method. Cells stably expressing functional human Nox1 (hNOX1 T-REx™-CHO) were obtained by co-transfecting T-REx™-CHO cells with human Nox1, human p22, human NOXA1 and human NOXO1. Cells stably expressing functional human Nox2 (hNOX2 T-REx™-CHO) were obtained by co-transfecting T-REx™-CHO cells with human nox2, human p22 and human cofactors. Cells stably expressing functional human Nox5 (hNOX5 T-REx™-CHO) were obtained by transfecting T-REx™-CHO cells with human Nox5. Co-transfected cells were selected with the appropriate antibiotics for 10 days. For the selection, hygromycin and G418 were used at 2 mg/ml and zeocin at 0.1 mg/ml. For the establishment of each stably transfected cell line, a pool of antibiotic-resistant cells was generated. Cells were cloned by limiting dilution. Several clones were established and investigated for ROS production upon tetracycline-induced hNox expression using a cellular AR assay. The expression of NOXes was done with tetracycline (1 μg/ml) during 24 h prior to the assay.
as §2, §3
Antagonist activity of compounds was measured in the presence of increasing concentrations ranging from 1 nM to 100 μM. […]

Row | Structure (SMILES) | pKi [1] | pKi [2]
1 | COc1ccc(-c2c3c(=O)n(-c4ccccc4Cl)[nH]c3cc(=O)n2Cc2cccnc2)c(F)c1 [(21), 2-(2-chlorophenyl)-4-(2-fluoro-4-methoxyphenyl)-5-(pyridin-3-ylmethyl)-1H-pyrazolo[4,3-c]pyridine-3,6(2H,5H)-dione] | 7.02 | 6.26
2 | COc1cc(Cn2c(C)c3c(=O)n(-c4ccccc4Cl)[nH]c3cc2=O)ccn1 [(6), 2-(2-chlorophenyl)-5-[(2-methoxypyridin-4-yl)methyl]-4-methyl-1H-pyrazolo[4,3-c]pyridine-3,6(2H,5H)-dione] | 7.16 | 6.15
3 | O=c1c2c(-c3cc(F)ccc3F)n(Cc3ccncc3)c(=O)cc2[nH]n1-c1ccccc1Cl [(35), 2-(2-chlorophenyl)-4-(2,5-difluorophenyl)-5-(pyridin-4-ylmethyl)-1H-pyrazolo[4,3-c]pyridine-3,6(2H,5H)-dione] | 6.92 | 6.18
4 | O=c1c2c(-c3ccccc3F)n(Cc3cccnc3)c(=O)cc2[nH]n1-c1ccccc1Cl [(17), 2-(2-chlorophenyl)-4-(2-fluorophenyl)-5-(pyridin-3-ylmethyl)-1H-pyrazolo[4,3-c]pyridine-3,6(2H,5H)-dione] | 7.06 | 6.22
5 | O=c1c2c(-c3ccc(Cl)cc3)n(Cc3cnccn3)c(=O)cc2[nH]n1-c1ccccc1Cl [(16), 2-(2-chlorophenyl)-4-(4-chlorophenyl)-5-(pyrazin-2-ylmethyl)-1H-pyrazolo[4,3-c]pyridine-3,6(2H,5H)-dione] | 7.07 | 6.14
6 | COc1ccc(-c2c3c(=O)n(-c4ccccc4Cl)[nH]c3cc(=O)n2Cc2ccncc2)c(F)c1 [(27), 2-(2-chlorophenyl)-4-(2-fluoro-4-methoxyphenyl)-5-(pyridin-4-ylmethyl)-1H-pyrazolo[4,3-c]pyridine-3,6(2H,5H)-dione] | 6.97 | 6.23
7 | COc1ccc(F)c(-c2c3c(=O)n(-c4ccccc4OC)[nH]c3cc(=O)n2Cc2ccn(C)n2)c1 [(13), 4-(2-fluoro-5-methoxyphenyl)-2-(2-methoxyphenyl)-5-[(1-methyl-1H-pyrazol-3-yl)methyl]-1H-pyrazolo[4,3-c]pyridine-3,6(2H,5H)-dione] | 7.10 | 6.01
8 | COc1ccc(F)c(-c2c3c(=O)n(-c4ccccc4OC)[nH]c3cc(=O)n2Cc2cccnc2)c1 [(5), 4-(2-fluoro-5-methoxyphenyl)-2-(2-methoxyphenyl)-5-(pyridin-3-ylmethyl)-1H-pyrazolo[4,3-c]pyridine-3,6(2H,5H)-dione] | 7.20 | 6.14
9 | COc1ccc(-c2c3c(=O)n(-c4ccccc4Cl)[nH]c3cc(=O)n2Cc2cnccn2)cc1 [(2), 2-(2-chlorophenyl)-4-(4-methoxyphenyl)-5-(pyrazin-2-ylmethyl)-1H-pyrazolo[4,3-c]pyridine-3,6(2H,5H)-dione] | 7.32 | 6.17
10 | O=c1c2c(-c3ccc(Cl)cc3)n(Cc3cccnc3)c(=O)cc2[nH]n1-c1ccccc1Cl [(25), 2-(2-chlorophenyl)-4-(4-chlorophenyl)-5-(pyridin-3-ylmethyl)-1H-pyrazolo[4,3-c]pyridine-3,6(2H,5H)-dione] | 7.00 | 5.66
11 | O=c1c2c(-c3cc(F)ccc3F)n(Cc3cccnc3)c(=O)cc2[nH]n1-c1ccccc1Cl [(42), 2-(2-chlorophenyl)-4-(2,5-difluorophenyl)-5-(pyridin-3-ylmethyl)-1H-pyrazolo[4,3-c]pyridine-3,6(2H,5H)-dione] | 6.80 | 6.27
12 | COc1ccc(Cn2c(C)c3c(=O)n(-c4ccccc4Cl)[nH]c3cc2=O)cn1 [(10), 2-(2-chlorophenyl)-5-[(6-methoxypyridin-3-yl)methyl]-4-methyl-1H-pyrazolo[4,3-c]pyridine-3,6(2H,5H)-dione] | 7.13 | 6.15
13 | COc1ccc(-c2c3c(=O)n(-c4ccccc4Cl)[nH]c3cc(=O)n2Cc2ccn(C)n2)c(F)c1 [(4), 2-(2-chlorophenyl)-4-(2-fluoro-4-methoxyphenyl)-5-[(1-methyl-1H-pyrazol-3-yl)methyl]-1H-pyrazolo[4,3-c]pyridine-3,6(2H,5H)-dione] | 7.21 | 6.09
